Structures are written as SMILES.

Sequence of LRRK2(G2019S mutation, GST-LRRK2(amino acids 970-2527)) (Q5S007 970-2527 G2019S): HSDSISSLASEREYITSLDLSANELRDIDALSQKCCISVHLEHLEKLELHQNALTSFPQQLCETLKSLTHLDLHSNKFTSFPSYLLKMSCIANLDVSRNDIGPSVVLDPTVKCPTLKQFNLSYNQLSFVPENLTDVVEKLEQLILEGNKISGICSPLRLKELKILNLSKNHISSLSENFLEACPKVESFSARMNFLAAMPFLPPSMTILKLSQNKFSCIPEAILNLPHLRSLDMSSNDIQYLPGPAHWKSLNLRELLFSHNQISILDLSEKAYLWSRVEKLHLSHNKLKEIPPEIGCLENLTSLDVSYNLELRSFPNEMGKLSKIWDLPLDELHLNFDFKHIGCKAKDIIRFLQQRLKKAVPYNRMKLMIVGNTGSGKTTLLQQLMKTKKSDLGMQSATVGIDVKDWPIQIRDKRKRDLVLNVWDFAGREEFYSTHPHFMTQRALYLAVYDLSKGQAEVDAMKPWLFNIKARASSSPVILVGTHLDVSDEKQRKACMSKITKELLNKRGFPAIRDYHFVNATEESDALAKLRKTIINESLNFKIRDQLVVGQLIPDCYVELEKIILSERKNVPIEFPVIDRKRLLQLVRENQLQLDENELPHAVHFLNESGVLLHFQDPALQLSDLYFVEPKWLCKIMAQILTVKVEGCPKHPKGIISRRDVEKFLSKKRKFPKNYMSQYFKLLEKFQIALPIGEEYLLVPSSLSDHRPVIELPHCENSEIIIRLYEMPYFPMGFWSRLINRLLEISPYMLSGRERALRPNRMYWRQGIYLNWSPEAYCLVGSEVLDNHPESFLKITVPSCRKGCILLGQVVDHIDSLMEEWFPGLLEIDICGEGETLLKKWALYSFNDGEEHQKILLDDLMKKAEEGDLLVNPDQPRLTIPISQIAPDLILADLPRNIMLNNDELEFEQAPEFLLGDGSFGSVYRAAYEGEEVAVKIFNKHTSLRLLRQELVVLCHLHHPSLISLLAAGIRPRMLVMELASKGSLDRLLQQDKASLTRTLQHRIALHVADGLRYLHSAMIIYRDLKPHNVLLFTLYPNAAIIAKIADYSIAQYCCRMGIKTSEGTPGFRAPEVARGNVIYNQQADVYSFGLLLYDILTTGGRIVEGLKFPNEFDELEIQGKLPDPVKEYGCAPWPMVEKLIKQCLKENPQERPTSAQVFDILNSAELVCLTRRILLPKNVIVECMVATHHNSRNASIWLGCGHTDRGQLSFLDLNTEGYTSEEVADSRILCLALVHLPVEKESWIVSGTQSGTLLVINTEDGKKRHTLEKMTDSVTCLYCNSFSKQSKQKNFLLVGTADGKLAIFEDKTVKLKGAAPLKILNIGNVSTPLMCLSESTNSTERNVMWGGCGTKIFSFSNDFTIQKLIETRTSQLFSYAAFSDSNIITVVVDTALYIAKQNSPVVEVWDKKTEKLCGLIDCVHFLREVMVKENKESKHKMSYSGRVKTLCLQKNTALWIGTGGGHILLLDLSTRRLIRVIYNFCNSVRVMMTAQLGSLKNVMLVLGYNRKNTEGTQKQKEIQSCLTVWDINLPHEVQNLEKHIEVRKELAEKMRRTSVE

For one assay, the target named is LRRK2(G2019S mutation, GST-LRRK2(amino acids 970-2527)) (Homo sapiens (Human), UniProt Q5S007, G2019S). Nature of the assay: LRRK2 Km ATP LanthaScreen Assay. The note with it: Examples N1-N25. It is filed as biochemical. How it is done:
Unless otherwise noted, all LRRK2 IC50 data presented in tables refers to the LRRK2 Km ATP LanthaScreen™ Assay that is described in the Biological Assay section.
The data presented for the 5 mM and Km ATP LanthaScreen™ Assay represents mean IC50 values based on several test results and may have reasonable. deviations depending on the specific conditions and reagents used. Reagents for the LRRK2 5 mM and Km ATP LanthaScreen™ Assay were purchased from Life Technologies Corporation.
LRRK2 Km ATP LanthaScreen™ Assay
a) 400 nl of a 1:2.15 serial dilution of test compound(98 μM top assay concentration) is spotted via Labcyte Echo to certain wells in a 384 well black, untreated plate. Control wells contain 400 nl of either DMSO or 400 nl of a known inhibitor in DMSO.
b) 10 μl of a 2.5 nM LRRK2(G2019S mutation, GST-LRRK2(amino acids 970-2527)) enzyme solution in 1× assay buffer(50 mM Tris pH 8.5, 10 mM MgCl2, 0.01% Brij-35, 1 mM EGTA, 2 mM DTT, 0.05 mM NaVO4) is added to all wells.
c) A 30 minute room temperature incubation is followed by addition of 10 μl of 800 nM fluorescein labeled LRRKtide peptide substrate and 184 μM ATP solution in 1× assay buffer to all wells.
d) After a 60 minute room temperature incubation, 20 μl of TR-FRET Dilution Buffer(Invitrogen PV3756B) containing 4 nM Tb-labeled anti-phospho LRRKtide antibody and 20 mM EDTA is added to all wells.
e) Plates are incubated at room temperature for 1 hour and read on an Envision™ multi-mode plate reader with LanthaScreen™ settings. Results are analysed using Assay Data Analyzer.
(Time-resolved FRET reads energy transfer from a long-lived donor to a nearby acceptor.)
In general, IC50 refers to the concentration needed to halve the response being measured. Low values mean greater potency in that assay, high ones weaker potency in that assay. With `CC(C)Oc1cc2c(-c3cc(N4CC[C@H](N(C)C)C4)ncn3)n[nH]c2cc1F` [Example N22], the IC50 is 7 nM.
`CC(C)Oc1cc2c(-c3cc(N4CC[C@H](CO)C4)ncn3)n[nH]c2cc1F` [Example N6] returned an IC50 of 10.2 nM.
The same measure, in the same setting: next, `CC(C)Oc1cc2c(-c3cc(N4CCC(F)(C#N)CC4)ncn3)n[nH]c2cc1F` [Example N16]: 17.7 nM.
The same measure, in the same setting: under `CC(C)Oc1cc2c(-c3cc(N4C[C@H](O)[C@@H](N(C)C)C4)ncn3)n[nH]c2cc1F` [Example N18] stands 7.9 nM; under `CC(C)Oc1cc2c(-c3cc(N4CCc5oncc5C4)ncn3)n[nH]c2cc1F` [Example N10], 9.8 nM.
Still for that read-out and setting: under `CC(C)Oc1cc2c(-c3cc(N4CCC(F)(CO)CC4)ncn3)n[nH]c2cc1F` [Example N20] stands 2.3 nM.

Still in this assay, the particulars now being: Examples O1-O23.
`COC[C@H](C)Oc1ccc2[nH]nc(-c3cc(N4C[C@H](F)[C@@H](F)C4)ncn3)c2c1` [Example O12] yielded an IC50 of 7.9 nM.
On the same count and under the same terms, next, `COC[C@H](C)Oc1ccc2[nH]nc(-c3cc(N4CCn5ncnc5C4)ncn3)c2c1` [Example O1]: 20.2 nM.
On the same count and under the same terms, under `COCC1CN(c2cc(-c3n[nH]c4ccc(O[C@@H](C)COC)cc34)ncn2)CCO1` (some centres unmarked) [Example O13] stands 3.6 nM; under `COC[C@H](C)Oc1ccc2[nH]nc(-c3cc(N4CCOC[C@@H]4C)ncn3)c2c1` [Example O16], 6 nM.

Staying with this assay, now noted: Examples P1-P18.
The compound `N#Cc1cc(-c2ccc3[nH]nc(-c4cc(N5CCOCC5)ncn4)c3c2)ccn1` [Example P1] registered an IC50 of 340 nM.
Take `Cc1nocc1-c1ccc2[nH]nc(-c3cc(N4CCOCC4)ncn3)c2c1` [Example P15]: it took 59 nM to reach half-maximal inhibition (IC50).
On the same count and under the same terms, under `COc1cncc(-c2ccc3[nH]nc(-c4cc(N5CCOCC5)ncn4)c3c2)n1` [Example P11] stands 18.3 nM.

Still in this assay, the particulars now being: Examples Q1-Q20.
As for `COc1cncc(-c2ccc3[nH]nc(-c4cc(N5C[C@@H](C)O[C@@H](C)C5)ncn4)c3c2)n1` [Example Q10], the IC50 is 2.4 nM.
In the case of `C[C@@H]1CN(c2cc(-c3n[nH]c4ccc(-c5ccc6nncn6c5)cc34)ncn2)C[C@H](C)O1` [Example Q16], inhibition was half-maximal at 60.6 nM (IC50).
The same measure, in the same setting: under `Cc1ncc(-c2ccc3[nH]nc(-c4cc(N5C[C@@H](C)O[C@@H](C)C5)ncn4)c3c2)nc1C` [Example Q12] stands 17.4 nM.
Still for that read-out and setting: under `COc1cc(-c2ccc3[nH]nc(-c4cc(N5C[C@@H](C)O[C@@H](C)C5)ncn4)c3c2)ccn1` [Example Q15] stands 155 nM.

Still in this assay, the particulars now being: Km ATP (184 μM ATP solution), G2019S LRRK2, mean IC50.
In turn, `CC(C)Oc1ccc2[nH]nc(-c3cc(N4CCC(F)(F)CC4)ncn3)c2c1` [Example J15] gave an IC50 of 20.2 nM.
Still for that read-out and setting: next, `CCN1CCN(c2cc(-c3n[nH]c4ccc(OCCOC)cc34)ncn2)CC1` [Example G8]: 97 nM; `COc1ccc2[nH]nc(-c3cc(N4CCN(C(C)=O)CC4)ncn3)c2c1` [Example E5]: 74.5 nM.
Same read-out and setting: next, `CCOc1ccc2[nH]nc(-c3cc(N4CCNC(=O)C4)ncn3)c2c1` [Example F6]: 63.9 nM; `COCCOc1ccc2[nH]nc(-c3cc(N4CCNC(=O)C4)ncn3)c2c1` [Example G6]: 136 nM.
On the same count and under the same terms, next, `CC(C)Oc1ccc2[nH]nc(-c3cc(N4CCN(c5ncccn5)CC4)ncn3)c2c1` [Example K7]: 11.8 nM.
With `COCCOC1CCN(c2cc(-c3n[nH]c4cc(F)c(OC(C)C)cc34)ncn2)CC1` [Example D67], inhibition was half-maximal at 2.1 nM (IC50).
Consider `CC(C)Oc1cc2c(-c3cc(N4CCO[C@@H](C)C4)ncn3)n[nH]c2cc1F` [Example D38], for which the IC50 came to 5.01 nM.
The same measure, in the same setting: next, `CC(C)=Cc1ccc2[nH]nc(-c3cc(N4CCO[C@H](C)C4)ncn3)c2c1` [Example S1]: 16.4 nM.
Still for that read-out and setting: next, `CC(C)Oc1cc2c(-c3cc(N4CCN(S(=O)(=O)C5CC5)CC4)ncn3)n[nH]c2cc1F` [Example D63]: 4.17 nM; `CC(C)Oc1ccc2[nH]nc(-c3cc(N4CC(F)(F)C4)ncn3)c2c1` [Example J18]: 24.3 nM; `c1cncc(-c2ccc3[nH]nc(-c4cc(N5CCOCC5)ncn4)c3c2)c1` [Example T1]: 5.5 nM.
On the same count and under the same terms, under `Cn1cc(-c2ccc3[nH]nc(-c4cc(N5CCC(F)(F)C5)ncn4)c3c2)cn1` [Example M26] stands 3.7 nM.
Compound `CC(C)Oc1cc2c(-c3cc(N4CC5CCC(C4)O5)ncn3)n[nH]c2cc1F` [Example D47] had an IC50 of 14.6 nM.
Same read-out and setting: next, `CC(C)Oc1ccc2[nH]nc(-c3cc(N4C[C@@H](C)O[C@@H](C)C4)ncn3)c2c1` [Example J6]: 7.8 nM.
Still for that read-out and setting: under `CO[C@H]1CN(c2cc(-c3n[nH]c4ccc(OC(C)C)cc34)ncn2)C[C@@H]1O` [Example J8] stands 18.6 nM; under `CN(C)[C@H]1CN(c2cc(-c3n[nH]c4ccc(-c5cnn(C)c5)cc34)ncn2)C[C@@H]1O` [Example M17], 13.5 nM.
For the compound `CC(C)Cc1ccc2[nH]nc(-c3cc(N4CCOCC4)ncn3)c2c1` [V], half-maximal inhibition (IC50) required 56 nM.
On the same count and under the same terms, next, `CC(C)Oc1ccc2[nH]nc(-c3cc(N4CCNCC4)ncn3)c2c1` [Example D18]: 12.4 nM.
`COC[C@H](C)Oc1ccc2[nH]nc(-c3cc(N4CCN(C)CC4)ncn3)c2c1` [Example H7] yielded an IC50 of 2.08 nM.
Still for that read-out and setting: next, `CC(C)Oc1ccc2[nH]nc(-c3cc(N4CCC(n5ccnc5)C4)ncn3)c2c1` (centres unmarked) [Example K11]: 11.3 nM.
Consider `CCN1CCN(c2cc(-c3n[nH]c4ccc(OC)cc34)ncn2)CC1=O` [Example E11], for which the IC50 was 78.3 nM.
Same read-out and setting: next, `Cn1cc(-c2ccc3[nH]nc(-c4cc(N5CCN6C(=O)OCC6C5)ncn4)c3c2)cn1` (centres unmarked) [Example M15]: 6.3 nM; `CC(C)Oc1ccc2[nH]nc(-c3cc(N4CCO[C@@H](C)C4)ncn3)c2c1` [Example D20]: 21.4 nM.
Turning to `CS(=O)(=O)N1CCN(c2cc(-c3n[nH]c4ccc(-c5cccnc5)cc34)ncn2)CC1` [Example T2], the IC50 was determined as 7.3 nM.
On the same count and under the same terms, under `COc1ccc2[nH]nc(-c3cc(N4CCO[C@H](C)C4)ncn3)c2c1` [Example E12] stands 28.5 nM; under `CC(C)Oc1ccc2[nH]nc(-c3cc(N4C[C@H](F)[C@@H](F)C4)ncn3)c2c1` [Example J10], 11.1 nM.
On the same count and under the same terms, next, `COC1CCN(c2cc(-c3n[nH]c4ccc(-c5cnn(C)c5)cc34)ncn2)CC1` [Example A12]: 2.04 nM.
Still for that read-out and setting: next, `Cn1cc(-c2ccc3[nH]nc(-c4cc(N5CCCC6(CCO6)C5)ncn4)c3c2)cn1` (centres unmarked) [Example M16]: 10.9 nM.
`COc1ccc2[nH]nc(-c3cc(N4CCNC(=O)C4)ncn3)c2c1` [Example E10] yielded an IC50 of 101 nM.
Same read-out and setting: under `CCN1CCN(c2cc(-c3n[nH]c4cc(F)c(OC(C)C)cc34)ncn2)CC1` [Example D46] stands 2.97 nM; under `CC(C)Oc1ccc2[nH]nc(-c3cc(N4CCN(C(=O)C5CCCO5)CC4)ncn3)c2c1` (centres unmarked) [Example K6], 58.1 nM.
On the same count and under the same terms, next, `CC(C)Oc1ccc2[nH]nc(-c3cc(N4CC[C@H](F)C4)ncn3)c2c1` [Example J26]: 9.5 nM; `COc1ccc2[nH]nc(-c3cc(N4CCN(C5CC5)CC4)ncn3)c2c1` [Example E9]: 25.9 nM.
Regarding `COC[C@H](C)Oc1ccc2[nH]nc(-c3cc(N4CCC5(CC4)CNC(=O)C5)ncn3)c2c1` [Example H11], half-maximal inhibition (IC50) was put at 2.85 nM.
The compound `COCCOc1ccc2[nH]nc(-c3cc(N4C[C@H](F)[C@@H](F)C4)ncn3)c2c1` [Example G3] yielded an IC50 of 138 nM.
Still for that read-out and setting: next, `CC(C)Oc1ccc2[nH]nc(-c3cc(N4CCC4)ncn3)c2c1` [Example J4]: 7.9 nM; `CCOc1ccc2[nH]nc(-c3cc(N4CCO[C@H](C)C4)ncn3)c2c1` [Example F12]: 10.5 nM; `Cn1cc(-c2ccc3[nH]nc(-c4cc(N5CCn6ncnc6C5)ncn4)c3c2)cn1` [Example M3]: 8.5 nM.
`CC(C)Oc1ccc2[nH]nc(-c3cc(N4CCCC4)ncn3)c2c1` [Example J5] came in with an IC50 of 13.9 nM.
On the same count and under the same terms, under `COc1ccc2[nH]nc(-c3cc(N4CCN(S(C)(=O)=O)CC4)ncn3)c2c1` [Example E4] stands 35.4 nM; under `Cn1cc(-c2cc3c(-c4cc(N5CCc6nccnc6C5)ncn4)n[nH]c3cc2F)cn1` [Example L26], 11.1 nM; under `COCCN(C)c1cc(-c2n[nH]c3ccc(OC(C)C)cc23)ncn1` [Example D19], 66.5 nM.
Still for that read-out and setting: under `CC(C)Oc1ccc2[nH]nc(-c3cc(N4CCN(c5ccncn5)CC4)ncn3)c2c1` [Example J24] stands 15.8 nM.

The same assay, now with this note: Table U.
The compound `C[C@@H]1CN(c2cc(-c3n[nH]c4ccc(-c5ccn[nH]5)cc34)ncn2)C[C@H](C)O1` [Example U28] returned an IC50 of 1.44 nM.
The same measure, in the same setting: next, `Cc1ncc(-c2ccc3[nH]nc(-c4cc(N5CCOCC5)ncn4)c3c2)s1` [Example U10]: 2.2 nM; `c1nc(-c2n[nH]c3ccc(-c4ccoc4)cc23)cc(N2CCOCC2)n1` [Example U8]: 19 nM.
Still for that read-out and setting: next, `c1cc(-c2ccc3[nH]nc(-c4cc(N5CCOCC5)ncn4)c3c2)[nH]n1` [Example U14]: 2.63 nM.

The values above are taken from patent US9416126B2, “Compounds inhibiting leucine-rich repeat kinase enzyme activity” (Merck Sharp & Dohme Corp., priority 2013, dated 2016).
